Measurements reported in patent US8710063B2, “Purine compounds used as CB2 agonists” (priority 2010, dated 2014).
Counter-ions that a name gives are not always drawn.

How the values were obtained:
[1] = target: T1, human CB2 receptor (Homo sapiens, UniProt P34972); test: Displacement of 3H-CP55940 from human CB2 receptors; format: binding; conditions: displacement of 3H-CP55940, human CB2 membrane homogenates
T1 construct: expressed in transfected cells
Experimental: (§1) Displacement of 3H-CP55940 from Human and Rat CB2 Receptors
(§2) The methods of Felder et al. (Mol. Pharmaocol. 48:443-450, 1995) were utilized with minor modifications. Specifically, membrane homogenates from cells stably or transiently expressing the human or rat CB2 receptor were washed by centrifugation and diluted into a 50 mM Tris HCl (pH 7.4), 5 mM MgCl2, 2.5 mM EDTA, and 0.1% BSA buffer. Specific binding of 3H-CP55940 was defined with 1 μM CP55940. The ability of compounds to displace specific 3H-CP55940 binding was tested over a range of concentrations in the Tris, MgCl2, EDTA, BSA buffer in the presence of 1% dimethyl sulfoxide by incubating at room temperature for 90 minutes in a volume of 300 μl. Unifilter 96-well microplates pretreated with 0.5% polyvinylpyrrolidone, 0.1% polysorbate 20 in water were washed three times with cold Tris buffer. The reaction mixture was then transferred to the filter plate immediately before terminating the incubation by rapid filtration and three 200 μl washes with cold Tris buffer. After the filter plates dried, microscint 20 was added to each well, the plate sealed and counted for determination of disintegrations per minute. The displacement curves were graphed and the resulting Ki values determined utilizing Graphpad Prism.

[2] = target: T2, rat CB2 receptor (Rattus norvegicus, UniProt Q9QZN9); test: Displacement of 3H-CP55940 from rat CB2 receptors; format: binding; conditions: displacement of 3H-CP55940, rat CB2 membrane homogenates
T2 construct: expressed in transfected cells
T2 sequence (Q9QZN9 1-360): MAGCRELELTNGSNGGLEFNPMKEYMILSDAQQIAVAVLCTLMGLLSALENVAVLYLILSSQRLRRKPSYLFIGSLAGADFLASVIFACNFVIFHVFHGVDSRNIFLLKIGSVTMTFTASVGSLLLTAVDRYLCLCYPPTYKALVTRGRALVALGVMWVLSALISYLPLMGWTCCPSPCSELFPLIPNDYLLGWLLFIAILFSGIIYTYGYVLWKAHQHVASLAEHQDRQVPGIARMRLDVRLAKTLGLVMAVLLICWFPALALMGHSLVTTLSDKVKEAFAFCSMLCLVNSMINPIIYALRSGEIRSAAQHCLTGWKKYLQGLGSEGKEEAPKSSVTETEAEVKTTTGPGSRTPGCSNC
Experimental: as §1, §2

[3] = test system: Male Harlan Sprague-Dawley rats; test: Animal model of dural plasma protein extravasation (PPE); format: in vivo; conditions: 10 mg/kg, 2 hours post po dose, rat; saline controls approximately 2.0, full prevention approximately 1.0
[4] = test system: male Lewis rats; test: Monoiodoacetate (MIA) model, incapacitance testing; format: in vivo; conditions: dosed once, rat MIA model
Experimental: Monoiodoacetate (MIA) Model
For all studies male Lewis rats of approximately 8 weeks of age at the time of MIA injection are used to measure pain in the MIA model. The rats are housed in groups of 2 or 3 per cage and maintained in a constant temperature and on a 12 hour light/12 hour dark cycle. Animals have free access to food and water at all times except during data collection.
In the standard MIA model the right knees of each rat are injected with 0.3 mg MIA in 50 ul of saline and the left knees with 50 ul of saline. Pain is measured at varying times after MIA injection (not normally before 10 day post MIA injection) using incapacitance testing. This measures the difference in hind paw weight bearing between the MIA and saline injected knees, and each measurement is the average of 3 separate measurements each measured over 1 second.
For studies with CB2 agonists rats are randomized into dose groups (n=5 or 6) and then dosed once with the compound under investigation. Dosing is staggered by 15 minutes for each rat and at a predetermined time post-dose (usually 2 hours), pain measured using incapacitance testing. Studies are routinely run with 4 groups, vehicle (1% carboxy methyl cellulose in water plus 0.25% polysorbate 80) and 3 compound groups which can be either single compounds at a single dose or the same compound at 3 doses. Results are reported as the difference in weight bearing between saline and MIA injected knees and statistical comparisons are made between vehicle treated and compound treated animals to assess the effect of compounds on knee pain in the model.

[5] = target: T3, hCB1-CHO membranes (Homo sapiens, UniProt P21554); test: CB1 in vitro functional assay, SPA based GTP-γ-35S binding, agonist mode (whole membrane capture); format: biochemical; conditions: normalized to methanandamide, read-out: relative EC50 value for CB1
T3 construct: expressed in transfected cells; host or cells: CHO cells
Experimental: (§3) CB1 and CB2 In Vitro Functional Assays
(§4) Exemplified compounds are tested in agonist mode using a SPA based GTP-γ-^35S binding assay. All assay components are prepared in assay buffer made up of 20 mM HEPES, 100 mM NaCl, 5 mM MgCl2, (pH 7.4 at room temperature). Semi-log compound dilutions are done in assay buffer containing BSA (final 0.125%). GTP-γ^35-S binding is measured in a 96 well format using a whole membrane capture technique for the CB1 assay and modifications of an antibody capture technique previously described (DeLapp et al. J Pharmacol Exp Ther 289:946-955, 1999) for the CB2 assay. All incubations are done at room temperature.
hCB1-CHO membranes, GDP (1 uM final), and saponin (10 ug/mL final) are added to assay buffer and homogenized. Diluted compounds, GTP-γ-^35S (500 nM final) and membranes are added to the assay plate and incubated for 30 minutes. Then 1 mg/well Wheatgerm Agglutinin SPA bead is added, and the plates are sealed, vortexed, and incubated for an additional hour. Plates are then centrifuged at 700×g for 10 minutes and counted for 1 minute per well using a scintillation counter.
To analyze data, first subtract background from all wells. Determine percent agonist efficacy by normalizing agonist/inverse agonist dose response data to a full agonist (methanandamide) response. Analyze the data using a 4-parameter logistic reduced fit with Activity Base and XLFit3.

[6] = target: T4, hCB2-Sf9 membranes (Homo sapiens, UniProt P34972); test: CB2 in vitro functional assay, SPA based GTP-γ-35S binding, agonist mode (antibody capture); format: biochemical; conditions: normalized to methanandamide, read-out: relative EC50 value for CB2
T4 construct: expressed in transfected cells; host or cells: Sf9 insect cells
Experimental: as §3, §4
hCB2-Sf9 membranes and GDP (1 uM final) are added to assay buffer and homogenized. Diluted compounds and membranes are added to the assay plate and pre-incubated for 15 minutes. This is followed by addition of GTP-γ-^35S ([…] final) and another 35 minute incubation. Next a mixture containing Nonidet P40 detergent (0.2% final), anti-Gi antibody (final dilution of 1:362), and 1.25 mg anti-rabbit antibody scintillation proximity assay beads are added. The plates are then sealed, vortexed, and incubated for an additional 2 hours before centrifuging and counting as for CB1.
To analyze data, first subtract background from all wells. […]

T4 sequence (P34972 whole entry): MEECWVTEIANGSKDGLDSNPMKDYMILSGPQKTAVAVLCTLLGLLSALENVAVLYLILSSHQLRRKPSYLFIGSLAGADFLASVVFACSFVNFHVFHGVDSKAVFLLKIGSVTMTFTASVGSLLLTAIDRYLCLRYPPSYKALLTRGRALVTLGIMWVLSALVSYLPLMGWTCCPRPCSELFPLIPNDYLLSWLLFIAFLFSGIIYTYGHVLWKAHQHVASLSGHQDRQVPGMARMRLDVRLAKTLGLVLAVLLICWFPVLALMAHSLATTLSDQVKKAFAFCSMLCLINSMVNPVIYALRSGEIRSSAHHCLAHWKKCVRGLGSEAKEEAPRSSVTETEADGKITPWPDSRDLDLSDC
T1 sequence (P34972 whole entry): as above
T3 sequence (P21554 whole entry): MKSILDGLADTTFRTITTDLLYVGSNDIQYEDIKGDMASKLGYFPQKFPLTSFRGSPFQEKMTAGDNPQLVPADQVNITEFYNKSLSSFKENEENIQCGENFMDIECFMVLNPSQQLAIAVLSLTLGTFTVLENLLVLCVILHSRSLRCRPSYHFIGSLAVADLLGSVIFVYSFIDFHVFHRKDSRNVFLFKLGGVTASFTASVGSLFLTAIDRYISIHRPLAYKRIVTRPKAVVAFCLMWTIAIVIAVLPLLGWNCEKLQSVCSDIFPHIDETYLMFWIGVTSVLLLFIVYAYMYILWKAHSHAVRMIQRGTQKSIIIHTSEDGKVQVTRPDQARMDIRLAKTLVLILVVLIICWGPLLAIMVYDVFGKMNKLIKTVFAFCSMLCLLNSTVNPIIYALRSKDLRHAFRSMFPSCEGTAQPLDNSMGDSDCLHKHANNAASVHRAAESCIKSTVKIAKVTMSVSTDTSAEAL

Row | SMILES | Ki [1] | Ki [2] | extravasation ratio (stimulated side over unstimulated side of dura) [3] | pain versus vehicle (difference in hind paw weight bearing) ([4]; dose 0.3 mg/kg) | pain versus vehicle (difference in hind paw weight bearing) ([4]; dose 1 mg/kg) | EC50 [5] | EC50 [6] | further results
1 | Cc1nc(N2CCN(C)CC2)c2nc(-c3ccccc3Cl)n(CC#N)c2n1 [Example 3, 2-[8-(2-Chlorophenyl)-2-methyl-6-(4-methylpiperazin-1-yl)purin-9-yl]acetonitrile hydrochloride] | 27.8 nM | 12.6 nM |  |  |  |  |  | 
2 | Cc1nc(N2CCN(C)CC2)c2nc(-c3ccccc3Cl)n(CCS(C)(=O)=O)c2n1.Cl [Example 1, 8-(2-Chlorophenyl)-6-(4-methylpiperazin-1-yl)-2-methyl-9-(2-methylsulfonylethyl)purine hydrochloride] |  |  | 1.12 | reduce pain versus vehicle | reduce pain versus vehicle |  |  | 
3 | CC(=O)NCCn1c(-c2ccccc2Cl)nc2c(N3CCN(CCF)CC3)nc(C)nc21.Cl [Example 17, N-[2-[8-(2-chlorophenyl)-6-[4-(2-fluoroethyl)piperazin-1-yl]-2-methyl-purin-9-yl]ethyl]acetamide hydrochloride] |  |  |  | reduce pain versus vehicle | reduce pain versus vehicle |  |  | pain versus vehicle (difference in hind paw weight bearing) ([4]; dose 0.1 mg/kg): reduce pain versus vehicle
4 | CCN1CCN(c2nc(C)nc3c2nc(-c2ccccc2Cl)n3CCNC(C)=O)CC1.Cl [Example 7, N-[2-[8-(2-Chlorophenyl)-6-(4-ethylpiperazin-1-yl)-2-methyl-purin-9-yl]ethyl]acetamide hydrochloride] |  |  | 1.18 |  |  |  |  | 
5 | COC(=O)NCCn1c(-c2ccccc2Cl)nc2c(N3CCN(CCF)CC3)nc(C)nc21 [Example 16, Methyl N-[2-[8-(2-chlorophenyl)-6-[4-(2-fluoroethyl)piperazin-1-yl]-2-methyl-purin-9-yl]ethyl]carbamate hydrochloride] |  |  |  |  |  | > 100000 nM | 13.5 nM | 
6 | CCN1CCN(c2nc(C)nc3c2nc(-c2ccccc2Cl)n3CCS(C)(=O)=O)CC1 [Example 2, 8-(2-Chlorophenyl)-6-(4-ethylpiperazin-1-yl)-2-methyl-9-(2-methylsulfonylethyl)purine hydrochloride] | 28.4 nM | 48.7 nM |  |  |  | 5560 nM | 17.2 nM | 
